Laboratory results taken from ChEMBL document CHEMBL1139724, “Synthesis and free radical scavenging activity of a novel metabolite from the fungus Colletotrichum gloeosporioides” (Bioorg Med Chem Lett, 2006).

Test: DPPH radical scavenging activity
Format: functional

SMILES	EC50 [mol/mol]
Oc1ccc([C@H]2OC[C@H](O)[C@@H]2O)cc1O	0.14
Cc1cc(C(C)(C)C)c(O)c(C(C)(C)C)c1 [BUTYLATED HYDROXYTOLUENE]	0.23
O=C(O)/C=C/c1ccc(O)c(O)c1 [CAFFEIC ACID]	0.11
O=C(O)c1ccc(O)c(O)c1 [PROTOCATECHUIC ACID]	0.14
